The conditions of data set [1]: 1-octanol/water partition coefficient; Clarkes Analysis of Drugs and Poisons; cited from earlier work.
The nature of data set [2]: Electrokinetic cross-membrane isolation (ECMI) of basic drugs; recovery in acceptor solution by capillary electrophoresis. In kind it is physicochemical. Also on record: key to Recovery: *: Recovery was observed, but results were unreliable due to large standard deviations. The note with it: for Recovery: liquid membrane 2-octanone, 300 V, 5 min, 5.2 mm vial; for Enrichment: optimal ECMI, 300 μl sample to 30 μl acceptor.
Description: The DC power supply used was a model XFR 300-9 (Xantrex, Burnaby, BC, Canada) with a programmable voltage in the range 0 to 300 V, providing currents in the range 0 to 9 A. Simple steel wires with a diameter of 0.2 mm were used as electrodes in the sample and acceptor solutions, and were connected to the power supply. As sample compartment, 800 μL polypropylene vials with cap were used with a height of 35 mm and with an internal diameter of 5.2 mm (unknown supplier). […] The porous hollow fiber used for immobilization of the artificial liquid membrane and for housing the acceptor solution was a PP Q3/2 polypropylene hollow fiber (Membrana, Wuppertal, Germany) with an internal diameter of 1.2 mm, with a 200 μm wall thickness, and with 0.2 μm pores. The ECMI was agitated at 1200 rpm during the experiments with a Vibramax 100 agitator (Heidolph, Kelheim, Germany).
ECMI was performed according to the following procedure; 300 μl acidified sample solution was filled into a polypropylene vial, and the positive electrode was placed in the sample. A 3.1 cm piece of polypropylene hollow fiber was closed in the lower end by mechanical pressure, whereas the upper end was connected to a 2.2 cm length pipette tip of polypropylene as a guiding tube. The hollow fiber and the guiding tube were then inserted through the cap of the sample vial. The hollow fiber was dipped for 5 s in the organic solvent serving as the artificial liquid membrane (typically 2-nitrophenyl octyl ether, nitrobenzene, 1-isopropyl nitrobenzene, octanol or heptanol), and excess of solvent was removed with a medical wipe. With a micro syringe, 30 μL of acceptor solution was filled into the hollow fiber, and the negative electrode was placed in the acceptor solution. Finally, the hollow fiber with acceptor solution was placed into the sample, and voltage (typically 300 V) was applied for 5 minutes. After electrokinetic cross-membrane isolation, the acceptor solution was collected with a micro syringe, and was transferred to a micro insert for the capillary electrophoresis instrument.
Capillary electrophoresis was performed with a MDQ instrument (Beckman, Fullerton, Calif., USA) equipped with a UV-detector. Separations were accomplished in a 75-μm-i.d. fused-silica capillary with an effective length of 20 cm (Beckman). The running buffer was 15 mM phosphate adjusted to pH 2.7 with ortho-phosphoric acid. The instrument was operated at 20 kV, which generated a current level of approximately 50 μA. Samples were introduced by hydrodynamic injection at 0.5 psi for 5 s. Detection was accomplished at 200 nm utilizing a 100×800 μm slit.
Recovery (R) during the cross-membrane isolation was calculated according to the following equation for each analyte: R=na,final/ns,initial×100%=(Va/Vs)(Ca,final/Cs,initial)·100% (1) where ns,initial and na,final are the number of moles of analyte originally present in the sample and the number of moles of analyte finally collected in the acceptor solution, respectively. Va is the volume of acceptor phase, Vs is the volume of sample, Ca,final is the final concentration of analyte in the acceptor phase, and Cs,initial is the initial analyte concentration within the sample.
Enrichment (E) during the cross-membrane isolation was calculated according to the following equation for each analyte: E=Ca,final/Cs,initial (2) Results and Discussion Initial Experiments.

For data set [3] the following is noted: Clarkes Analysis of Drugs and Poisons; cited from earlier work.

SMILES strings stand for the structures. Counter-ions that a name gives are not always drawn.

A word on the log P: it is the decadic logarithm of the partition coefficient of the neutral form, usually between octanol and water. For the compound `CC(=O)Nc1ccc(OCC(O)CNC(C)C)cc1` (centres unmarked) [Practolol, practolol], the “log P” value in data set [1] is recorded as −1.3.
In the case of `CCOC(=O)C1(c2ccccc2)CCN(C)CC1` [Pethidine, Pethidine hydrochloride], in data set [2], the Recovery entry is given as “*” and the Enrichment stood at 7.0.
A word on the pKa: it is the negative logarithm of the acid dissociation constant. As to `CN1CCC[C@@H]1CCO[C@](C)(c1ccccc1)c1ccc(Cl)cc1` [Clemastine, clemastine], in data set [1], the “log P” value was 5.7. The pKa in data set [3] is on record as 10.2.
`CNCCC=C1c2ccccc2CCc2ccccc21` [Nortriptyline, nortriptyline hydrochloride]: the “log P” value in data set [1] is listed as 1.7. In data set [2], the Recovery entry is reported as “*” and the Enrichment was found to be 7.0.
`COc1ccc(CN(CCN(C)C)c2ccccn2)cc1` [Mepyramine, mepyramine]: the log partition coefficient (log P) in data set [1] is recorded as 2.8.
For the compound `OCCOCCN1CCN(C(c2ccccc2)c2ccc(Cl)cc2)CC1` (centres unmarked) [Hydroxyzine, hydroxyzine], the “log P” value in data set [1] is 2.4.
Take `CN(C)CCCN1c2ccccc2CCc2ccc(Cl)cc21` [Clomipramine, clomipramine]: in data set [1], the “log P” value is on record as 5.2.
Take `O=C(CCCN1CCC(O)(c2ccc(Cl)cc2)CC1)c1ccc(F)cc1` [Haloperidol, haloperidol]: the “log P” value in data set [1] is 3.2. In data set [2], the Recovery result is “*” and the Enrichment is given as 7.2.
On to `CN(C)C(=O)C(CCN1CCC(O)(c2ccc(Cl)cc2)CC1)(c1ccccc1)c1ccccc1` [Loperamide, loperamide hydrochloride], for which the “log P” value in data set [1] was 5.2. Also, in data set [2], the Recovery result was “*” and the Enrichment amounted to 7.6. Further, the pKa in data set [3] is on record as 8.1.
As for `CCC(=O)C(CC(C)N(C)C)(c1ccccc1)c1ccccc1` (centres unmarked) [Methadone, methadone hydrochloride], in data set [2], the Recovery entry was “*” and the Enrichment worked out at 7.9.
For `CN[C@@H](C)Cc1ccccc1` [Metamfetamine, methamphetamine sulphate], the pKa in data set [3] is reported as 10.1.
Regarding `C[C@H](N)[C@H](O)c1cccc(O)c1` [Metaraminol, metaraminol hydrochloride], in data set [1], the “log P” value is −0.3. In addition, the pKa in data set [3] was 8.6.
As for `OCCN1CCN(CCCN2c3ccccc3Sc3ccc(C(F)(F)F)cc32)CC1` [Fluphenazine, fluphenazine], the “log P” value in data set [1] is recorded as 3.5.
As for `c1ccc(C2(N3CCCCC3)CCCCC2)cc1` [Phencyclidine, phencyclidine], the “log P” value in data set [1] was 4.7.
For `CC(CN1c2ccccc2Sc2ccccc21)N(C)C` (centres unmarked) [Promethazine, promethazine], in data set [1], the “log P” value is on record as 2.9.
